Data set [1] deals with A. baumannii 1403. As to the kind of experiment: MIC assay, strain 1403. The data set is classed as cell-based, Acinetobacter baumannii. As to conditions: Acinetobacter baumannii, strain 1403. Here is the method: (§1) MIC and MBC assays were performed in this study as documented by us previously.^17,23,24,25 The A. baumannii strains used are detailed in Table 7.
In data set [2] the test system is A. baumannii 1646. Put plainly: MIC assay, strain 1646. The data set is classed as cell-based, Acinetobacter baumannii. As to conditions: Acinetobacter baumannii. Here is the method: as §1
For data set [3], the system named is A. baumannii 1649. As to the kind of experiment: MIC assay, strain 1649. The data set is classed as cell-based, Acinetobacter baumannii. Particulars: Acinetobacter baumannii, strain 1649. The method, then:
as §1

The test system of data set [4] is A. baumannii 1650. As to the kind of experiment: MIC assay, strain 1650. The data set is classed as cell-based, Acinetobacter baumannii. As to conditions: Acinetobacter baumannii, strain 1650. The method, then:
as §1

The subject of data set [5] is A. baumannii 1651. As to the kind of experiment: MIC assay, strain 1651. The data set is classed as cell-based, Acinetobacter baumannii. Particulars: Acinetobacter baumannii, strain 1651. Here is the method: as §1
For data set [6], the system named is A. baumannii 1652. Put plainly: MIC assay, strain 1652. As to conditions: Acinetobacter baumannii, strain 1652. The data set is classed as cell-based, Acinetobacter baumannii. The method, then: as §1
Data set [7] concerns A. baumannii 1403. Put plainly: minimal bactericidal concentration (MBC) assay, strain 1403. The data set is classed as cell-based. As to conditions: Acinetobacter baumannii, Table 8, read-out: MBC90 1403.
Description: (§2) Lead quinazolines 4, 5, 26, 29, 27, and 30 were selected to be further evaluated for antimicrobial effects. The first assay utilized was a minimal bactericidal concentration (MBC) assay, to assess whether leads compounds were bacteriostatic or bactericidal. The six lead agents were screened to identify their MBC90 towards each of the six A. baumannii isolates used in the SAR studies (Table 8), however for simplicity only the representative data for isolate 1646 is detailed below (Table 6). […] Further to this, we were able to obtain complete eradication of bacterial growth for these two compounds at 1 μM for 24 and 5 μM for 25.
as §1

The test system of data set [8] is A. baumannii 1646. As to the kind of experiment: minimal bactericidal concentration (MBC) assay, strain 1646. The data set is classed as cell-based, Acinetobacter baumannii.
Description: as §2, §1

Data set [9] has as its system A. baumannii 1649. As to the kind of experiment: minimal bactericidal concentration (MBC) assay, strain 1649. Particulars: Acinetobacter baumannii, Table 8, read-out: MBC90 1649. The data set is classed as cell-based.
Description: as §2, §1

The test system of data set [10] is A. baumannii 1650. Put plainly: minimal bactericidal concentration (MBC) assay, strain 1650. The data set is classed as cell-based. As to conditions: Acinetobacter baumannii, Table 8, read-out: MBC90 1650.
Description: as §2, §1

Data set [11] relates to A. baumannii 1651. Put plainly: minimal bactericidal concentration (MBC) assay, strain 1651. The data set is classed as cell-based. As to conditions: Acinetobacter baumannii, Table 8, read-out: MBC90 1651.
Description: as §2, §1

Data set [12] relates to A. baumannii 1652. Put plainly: minimal bactericidal concentration (MBC) assay, strain 1652. The data set is classed as cell-based. As to conditions: Acinetobacter baumannii, Table 8, read-out: MBC90 1652.
Description: as §2, §1

Data set [13] deals with A. baumannii 1403 biofilm. As to the kind of experiment: biofilm eradication determination assay, strain 1403. The data set is classed as cell-based, Acinetobacter baumannii. Particulars: 90% biofilm eradication, Table 8. The method, then:
(§3) These assays were performed as described by us previously,^26,24 as follows. Each of the A. baumannii strains were grown overnight in Mueller Hinton Broth (MHB). The next day these were used to seed fresh MHB to an OD600 of 0.5, with 150 μL then added to the wells of a 96 well plate and grown for 24 hours at 37° C. After 24 hours, the planktonic bacteria were carefully removed and fresh MHB was added with increasing concentrations of lead quinazolines. After incubation at 37° C. for 24 hours, planktonic cells were removed and biofilms were washed three times with phosphate buffered saline (PBS). Biofilms were then resuspended in PBS and plated for cell viability on tryptic soy agar. Biofilm recovery was assessed compared to no drug controls, and determined as percent eradication. This was used to determine MBEC90 values (Minimal Biofilm Eradication Concentration), where the viability of cells within the biofilm was reduced by 90%.

In data set [14] the test system is A. baumannii 1646 biofilm. As to the kind of experiment: biofilm eradication determination assay, strain 1646. The data set is classed as cell-based, Acinetobacter baumannii. Here is the method:
as §3

Data set [15] has as its system A. baumannii 1649 biofilm. As to the kind of experiment: biofilm eradication determination assay, strain 1649. The data set is classed as cell-based, Acinetobacter baumannii. Particulars: 90% biofilm eradication, Table 8. The method, then: as §3
Data set [16] has as its system A. baumannii 1650 biofilm. As to the kind of experiment: biofilm eradication determination assay, strain 1650. The data set is classed as cell-based, Acinetobacter baumannii. As to conditions: 90% biofilm eradication, Table 8. The method, then: as §3
Data set [17] deals with A. baumannii 1651 biofilm. As to the kind of experiment: biofilm eradication determination assay, strain 1651. The data set is classed as cell-based, Acinetobacter baumannii. As to conditions: 90% biofilm eradication, Table 8. The method, then:
as §3

In data set [18] the test system is A. baumannii 1652 biofilm. As to the kind of experiment: biofilm eradication determination assay, strain 1652. The data set is classed as cell-based, Acinetobacter baumannii. As to conditions: 90% biofilm eradication, Table 8. The method, then:
as §3

For the next data set, the system named is A. baumannii. As to the kind of experiment: MIC assay, A. baumannii isolates (strain not given). The data set is classed as cell-based, Acinetobacter baumannii. As to conditions: Acinetobacter baumannii. Here is the method: as §1
The subject of a further data set is human HepG2 cells. The data set is classed as cell-based. Here is the method: Cytotoxicity assays were performed using human HepG2 cells (human liver epithelial with hepatocellular carcinoma), as described by us previously.^17,24 Cells were cultured in Dulbecco's modified eagle medium (DMEM), supplemented with 10% fetal bovine serum and 1% penicillin-streptomycin for 3 days at 37° C. and 5% CO2. Cells were then diluted to 1×10^5 ml^−1 using fresh DMEM and added to 96 well tissue culture plates at a volume of 100 μL. Plates were incubated for 24 hours at 37° C. and 5% CO2, allowing the cells to adhere to the plastic. […] Plates were then incubated for 48 hours at 37° C. and 5% CO2. After 48 hours the DMEM was removed and 100 μL of new media was added containing MTT (3-(4, 5-dimethylthiazol-2-yl)-2, 5-diphenyltetrazolium bromide), followed by incubation for four hours at 37° C. and 5% CO2. […] Lead compounds were solvated in 100% DMSO for these studies, which served as the negative control. LD50 values were determined for each compound by comparison to vehicle only controls.

[19] abbreviates: Tables 1, 3, 4, 5 and footnotes, read-out: 1403 MIC.
The mark [20] stands for this setting: strain 1646, Tables 1, 3, 4, 5 and footnotes, read-out: 1646 MIC.
Where [21] appears, read: Tables 1, 3, 4, 5 and footnotes, read-out: 1649 MIC.
Where [22] appears, read: Tables 1, 3, 4, 5 and footnotes, read-out: 1650 MIC.
[23] abbreviates: Tables 1, 3, 4, 5 and footnotes, read-out: 1651 MIC.
Setting [24] is: Tables 1, 3, 4, 5 and footnotes, read-out: 1652 MIC.
Setting [25] is: strain not given, read-out: MIC.

Converted amounts (≈) assume the structure as drawn. Where two headings read alike, the source gives them in different places.

For orientation: MIC means the lowest concentration that inhibits growth of the organism. For the molecule `CCCCCc1ccc2nc(NCc3ccccc3)nc(NC)c2c1` [Compound 27, N^2-Benzyl-N^4-methyl-6-pentylquinazoline-2,4-diamine], the MIC worked out at 2 µM (≈ 0.669 µg/mL) in the data set with A. baumannii 1403 [1] (setting [19]); 15 µM (≈ 5.02 µg/mL) in the data set on A. baumannii 1403 [1] (lead quinazolines, Table 8, read-out: MIC 1403); 1 µM (≈ 0.334 µg/mL) with A. baumannii 1646 [2] (Table 6, representative data for isolate 1646, read-out: MIC); 2 µM (≈ 0.669 µg/mL) in the data set on A. baumannii 1646 [2] (setting [20]); 1 µM (≈ 0.334 µg/mL) in the data set with A. baumannii 1646 [2] (strain 1646, lead quinazolines, Table 8, read-out: MIC 1646); 2 µM (≈ 0.669 µg/mL) with A. baumannii 1649 [3] (setting [21]). The MIC came out at 10 µM (≈ 3.34 µg/mL) in the data set on A. baumannii 1649 [3] (lead quinazolines, Table 8, read-out: MIC 1649); 2 µM (≈ 0.669 µg/mL) in the data set on A. baumannii 1650 [4] (setting [22]); 10 µM (≈ 3.34 µg/mL) with A. baumannii 1650 [4] (lead quinazolines, Table 8, read-out: MIC 1650); 2 µM (≈ 0.669 µg/mL) in the data set on A. baumannii 1651 [5] (setting [23]); 10 µM (≈ 3.34 µg/mL) in the data set with A. baumannii 1651 [5] (lead quinazolines, Table 8, read-out: MIC 1651); 10 µM (≈ 3.34 µg/mL) in the data set on A. baumannii 1652 [6] (setting [24]). For the same molecule, the MIC in the data set with A. baumannii 1652 [6] (lead quinazolines, Table 8, read-out: MIC 1652) amounted to 20 µM (≈ 6.69 µg/mL); with A. baumannii (most isolates besides the 1652 strain, read-out: MIC against most isolates), 2 µM (≈ 0.669 µg/mL). The MBC in the data set on A. baumannii 1403 [7] is 20 µM (≈ 6.69 µg/mL); in the data set on A. baumannii 1646 [8] (Acinetobacter baumannii, 1646, strain 1646, Table 8 and text, read-out: MBC90 1646), 1.1 µM (≈ 0.368 µg/mL); in the data set on A. baumannii 1646 [8] (Acinetobacter baumannii, Table 6, representative data for isolate 1646, read-out: MBC90) it was 1.1 µM (≈ 0.368 µg/mL); with A. baumannii 1649 [9] it was 43 µM (≈ 14.4 µg/mL); with A. baumannii 1650 [10], 20 µM (≈ 6.69 µg/mL); with A. baumannii 1651 [11] it was 4.1 µM (≈ 1.37 µg/mL). For the same molecule, the MBC in the data set on A. baumannii 1652 [12] was 23 µM (≈ 7.69 µg/mL). Moreover, the “MBEC90 1403” value in data set [13] came out at 12 µM. The molecule further gave an MBEC90 in [14] (Table 6, representative data for isolate 1646) of 11.5 µM. Moreover, the “MBEC90 1646” value in data set [14] (strain 1646, 90% biofilm eradication, Table 8 and text) was determined as 12 µM. For the same molecule, the “MBEC90 1649” value in data set [15] is 62 µM. Further, the “MBEC90 1650” value in data set [16] was 49 µM. The “MBEC90 1651” value in data set [17] was 18 µM. The “MBEC90 1652” value in data set [18] was found to be 64 µM. In the data set with human HepG2 cells (at 25 μM (highest concentration tested)), this molecule registered a HepG2 cell viability of 31%. Besides, the “LD50(HepG2)” value with human HepG2 cells (human, 48 h) is 12 µM.
As for `CNc1nc(NCc2ccccc2)nc2ccccc12` [Compound 8, N^2-benzyl-N^4-methylquinazolin-2,4-diamine], the minimal inhibitory concentration (MIC) in the data set on A. baumannii 1403 [1] (Table 2, read-out: 1403 MIC) was greater than 50 µM; with A. baumannii 1646 [2] (strain 1646, Table 2, read-out: 1646 MIC) it was 50 µM (≈ 13.2 µg/mL); with A. baumannii 1649 [3] (Table 2, read-out: 1649 MIC) it was greater than 50 µM; in the data set on A. baumannii 1650 [4] (Table 2, read-out: 1650 MIC), greater than 50 µM; in the data set with A. baumannii 1651 [5] (Table 2, read-out: 1651 MIC) it was greater than 50 µM; in the data set with A. baumannii 1652 [6] (Table 2, read-out: 1652 MIC) it was greater than 50 µM. Also, in the data set with A. baumannii (setting [25]), the minimal inhibitory concentration (MIC) is no less than 50 µM.
On to `CNc1nc(NCCc2ccccc2)nc2ccc(Cl)cc12` [Compound 17, 6-Chloro-N^4-methyl-N^2-phenethylquinazoline-2,4-diamine], for which the MIC is greater than 50 µM in the data set on A. baumannii 1403 [1] (setting [19]); 2 µM (≈ 0.626 µg/mL) with A. baumannii 1646 [2] (setting [20]); greater than 50 µM in the data set on A. baumannii 1649 [3] (setting [21]); greater than 50 µM in the data set with A. baumannii 1650 [4] (setting [22]); greater than 50 µM in the data set on A. baumannii 1651 [5] (setting [23]); greater than 50 µM in the data set on A. baumannii 1652 [6] (setting [24]). Also, the MIC in the data set on A. baumannii (setting [25]) is 2 to 4 µM (≈ 0.626 to 1.25 µg/mL).

For the origin of these results see patent US10323007B1, “N2N N4-disubstituted quinazoline-2,4-diamines and uses thereof” (University of South Florida, priority 2016, dated 2019).
